Reference: patent publication US11618743B2, “Herbicidal compounds” (SYNGENTA PARTICIPATIONS AG, priority 2017, dated 2023)
Read-outs that look alike come from different tables or passages of the source.

Assays:
Assay type in all cases: in vivo
[1] = tested on: Amaranthus retroflexus (AMARE); experiment: Post-emergence efficacy, Method B; conditions: 360 h, Application Rate 1000 g/Ha, evaluated after 15 days, read-out: Control of weed species after post-emergence application, AMARE (100=total damage to plant; 0=no damage to plant)
Experimental: (§1) An “instant formulation”, known as the IF50, containing 50 g/L of the “technical” (i.e. unformulated) active ingredient was prepared by dissolving the active ingredient in a mixture of organic solvents and emulsifier, details of which are provided in the table. This IF50 was then mixed with a small, variable amount of acetone to aid dissolution, before addition of an aqueous solution of 1% v/v ammonium sulphate+1% v/v Empicol ESC70 (Sodium lauryl ether sulphate) adjuvant, as the aqueous diluent, to form an aqueous spray solution which contains a predetermined concentration of the active ingredient (which varies depending on the application rate of the active ingredient to the plants).
(§2) Composition of the mixture of organic solvents and emulsifier used as a base for the instant formulation.
(§3) This aqueous spray solution was then sprayed onto the plants, after about 12 days' cultivation. The plants were grown from seeds sown in standard soil, placed in a glasshouse under controlled conditions (at 24/18° C. or 20/16° C., day/night; 16 hours light; 65% humidity). After spray application the plants were then grown on in a glasshouse under the same conditions and watered twice daily. After 15 days the test was evaluated (100=total damage to plant; 0=no damage to plant).
(§4) Ipomoea hederacea (IPOHE), Euphorbia heterophylla (EPHHL), Chenopodium album (CHEAL), 20 Amaranthus retroflexus (AMARE), Lolium perenne (LOLPE), Digitaria sanguinalis (DIGSA), Eleusine indica (ELEIN), Echinochloa crus-galli (ECHCG), Setaria faberi (SETFA)

[2] = tested on: Chenopodium album (CHEAL); experiment: Post-emergence efficacy, Method B; conditions: 360 h, read-out: Control of weed species after post-emergence application, CHEAL (100=total damage to plant; 0=no damage to plant)
Experimental: as §1, §2, §3, §4

[3] = tested on: Digitaria sanguinalis (DIGSA); experiment: Post-emergence efficacy, Method B; conditions: 360 h, Application Rate 1000 g/Ha, evaluated after 15 days, read-out: Control of weed species after post-emergence application, DIGSA (100=total damage to plant; 0=no damage to plant)
Experimental: as §1, §2, §3, §4

[4] = tested on: Echinochloa crus-galli (ECHCG); experiment: Post-emergence efficacy, Method B; conditions: 360 h, read-out: Control of weed species after post-emergence application, ECHCG (100=total damage to plant; 0=no damage to plant)
Experimental: as §1, §2, §3, §4

Eleusine indica (ELEIN) [5] = experiment: Post-emergence efficacy, Method B; conditions: 360 h, read-out: Control of weed species after post-emergence application, ELEIN (100=total damage to plant; 0=no damage to plant)
Experimental: as §1, §2, §3, §4

[6] = tested on: Euphorbia heterophylla (EPHHL); experiment: Post-emergence efficacy, Method B; conditions: 360 h, Application Rate 1000 g/Ha, evaluated after 15 days, read-out: Control of weed species after post-emergence application, EPHHL (100=total damage to plant; 0=no damage to plant)
Experimental: as §1, §2, §3, §4

[7] = tested on: Ipomoea hederacea (IPOHE); experiment: Post-emergence efficacy, Method B; conditions: 360 h, read-out: Control of weed species after post-emergence application, IPOHE (100=total damage to plant; 0=no damage to plant)
Experimental: as §1, §2, §3, §4

Lolium perenne (LOLPE) [8] = experiment: Post-emergence efficacy, Method B; conditions: 360 h, read-out: Control of weed species after post-emergence application, LOLPE (100=total damage to plant; 0=no damage to plant)
Experimental: as §1, §2, §3, §4

Setaria faberi (SETFA) [9] = experiment: Post-emergence efficacy, Method B; conditions: 360 h, Application Rate 1000 g/Ha, evaluated after 15 days, read-out: Control of weed species after post-emergence application, SETFA (100=total damage to plant; 0=no damage to plant)
Experimental: as §1, §2, §3, §4

[10] = tested on: Amaranthus palmeri (AMAPA); experiment: Post-emergence efficacy, Method A; conditions: Application rate 500 g/Ha, evaluated after 13 days; for Control of weed species AMAPA after post-emergence application (100=total damage to plant; 0=no damage to plant): Method A; for Control of weed species after post-emergence application, AMAPA: 100=total damage to plant, 0=no damage
How it was run: (§5)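 Potted plants in standard soil grown 14 d at 24/16 °C, 65% RH, then sprayed; twice-daily watering afterwards. Rated day 13, 0–100 damage.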

[11] = tested on: Chenopodium album (CHEAL); experiment: Post-emergence efficacy, Method A; conditions: Application rate 500 g/Ha, evaluated after 13 days; for Control of weed species CHEAL after post-emergence application (100=total damage to plant; 0=no damage to plant): Method A; for Control of weed species after post-emergence application, CHEAL: 100=total damage to plant, 0=no damage
How it was run: as §5

[12] = tested on: Digitaria sanguinalis (DIGSA); experiment: Post-emergence efficacy, Method A; conditions: Application rate 500 g/Ha, evaluated after 13 days; for Control of weed species DIGSA after post-emergence application (100=total damage to plant; 0=no damage to plant): Method A; for Control of weed species after post-emergence application, DIGSA: 100=total damage to plant, 0=no damage
How it was run: as §5

[13] = tested on: Echinochloa crus-galli (ECHCG); experiment: Post-emergence efficacy, Method A; conditions: Application rate 500 g/Ha, evaluated after 13 days; for Control of weed species ECHCG after post-emergence application (100=total damage to plant; 0=no damage to plant): Method A; for Control of weed species after post-emergence application, ECHCG: 100=total damage to plant, 0=no damage
How it was run: as §5

Eleusine indica (ELEIN) [14] = experiment: Post-emergence efficacy, Method A; conditions: Application rate 500 g/Ha, evaluated after 13 days; for Control of weed species ELEIN after post-emergence application (100=total damage to plant; 0=no damage to plant): Method A; for Control of weed species after post-emergence application, ELEIN: 100=total damage to plant, 0=no damage
How it was run: as §5

[15] = tested on: Euphorbia heterophylla (EPHHL); experiment: Post-emergence efficacy, Method A; conditions: Application rate 500 g/Ha, evaluated after 13 days; for Control of weed species EPHHL after post-emergence application (100=total damage to plant; 0=no damage to plant): Method A; for Control of weed species after post-emergence application, EPHHL: 100=total damage to plant, 0=no damage
How it was run: as §5

[16] = tested on: Ipomoea hederacea (IPOHE); experiment: Post-emergence efficacy, Method A; conditions: Application rate 500 g/Ha, evaluated after 13 days; for Control of weed species IPOHE after post-emergence application (100=total damage to plant; 0=no damage to plant): Method A; for Control of weed species after post-emergence application, IPOHE: 100=total damage to plant, 0=no damage
How it was run: as §5

Lolium perenne (LOLPE) [17] = experiment: Post-emergence efficacy, Method A; conditions: Application rate 500 g/Ha, evaluated after 13 days; for Control of weed species LOLPE after post-emergence application (100=total damage to plant; 0=no damage to plant): Method A; for Control of weed species after post-emergence application, LOLPE: 100=total damage to plant, 0=no damage
How it was run: as §5

Setaria faberi (SETFA) [18] = experiment: Post-emergence efficacy, Method A; conditions: Application rate 500 g/Ha, evaluated after 13 days; for Control of weed species SETFA after post-emergence application (100=total damage to plant; 0=no damage to plant): Method A; for Control of weed species after post-emergence application, SETFA: 100=total damage to plant, 0=no damage
How it was run: as §5

[19] = Method B, Application Rate 1000 g/Ha, evaluated after 15 days

Structure (SMILES)	Control of weed species AMAPA after post-emergence application (100=total damage to plant; 0=no damage to plant) [10]	Control of weed species CHEAL after post-emergence application (100=total damage to plant; 0=no damage to plant) [11]	Control of weed species DIGSA after post-emergence application (100=total damage to plant; 0=no damage to plant) [12]	Control of weed species ECHCG after post-emergence application (100=total damage to plant; 0=no damage to plant) [13]	Control of weed species ELEIN after post-emergence application (100=total damage to plant; 0=no damage to plant) (Eleusine indica (ELEIN) [14])	Control of weed species EPHHL after post-emergence application (100=total damage to plant; 0=no damage to plant) [15]	Control of weed species IPOHE after post-emergence application (100=total damage to plant; 0=no damage to plant) [16]	Control of weed species LOLPE after post-emergence application (100=total damage to plant; 0=no damage to plant) (Lolium perenne (LOLPE) [17])	Control of weed species SETFA after post-emergence application (100=total damage to plant; 0=no damage to plant) (Setaria faberi (SETFA) [18])	Control of weed species after post-emergence application, AMAPA [10]	Control of weed species after post-emergence application, CHEAL [11]	Control of weed species after post-emergence application, DIGSA [12]	Control of weed species after post-emergence application, ECHCG [13]	Control of weed species after post-emergence application, ELEIN (Eleusine indica (ELEIN) [14])	Control of weed species after post-emergence application, EPHHL [15]	Control of weed species after post-emergence application, IPOHE [16]	Control of weed species after post-emergence application, LOLPE (Lolium perenne (LOLPE) [17])	Control of weed species after post-emergence application, SETFA (Setaria faberi (SETFA) [18])	further results
O=C(O)CC[n+]1ccc(-c2ccncn2)cn1 [Compound A28]	–	–	–	–	–	–	–	–	–	–	–	–	–	–	–	–	–	–	pest or weed control at 1000 g/ha [1]: 100%; pest or weed control at 1000 g/ha [2]: 90%; pest or weed control at 1000 g/ha [3]: 100%; pest or weed control at 1000 g/ha [4]: 100%; pest or weed control at 1000 g/ha (Eleusine indica (ELEIN) [5]): 100%; pest or weed control at 1000 g/ha [6]: 100%; pest or weed control at 1000 g/ha [7]: 100%; pest or weed control at 1000 g/ha (Lolium perenne (LOLPE) [8]): 70%; pest or weed control at 1000 g/ha (Setaria faberi (SETFA) [9]): 40%
COc1cc(C)nc(-c2cc[n+](CCS(=O)(=O)[O-])nc2)n1 [Compound A94]	70	90	30	30	20	40	30	20	40	–	–	–	–	–	–	–	–	–	–
Cc1n[n+](CCS(=O)(=O)[O-])ccc1-c1ncccn1 [Compound A88, 2-(3-methyl-4-pyrimidin-2-yl-pyridazin-1-ium-1-yl)ethanesulfonate]	100	70	90	60	90	60	30	60	70	–	–	–	–	–	–	–	–	–	–
N#C[N-]C(=O)CC[n+]1ccc(-c2ncccn2)cn1 [Compound A226]	–	–	–	–	–	–	–	–	–	–	–	–	–	–	–	–	–	–	pest or weed control at 1000 g/ha [1]: 100%; pest or weed control at 1000 g/ha [2, 19]: 100%; pest or weed control at 1000 g/ha [3]: 100%; pest or weed control at 1000 g/ha [4, 19]: 100%; pest or weed control at 1000 g/ha [7, 19]: 100%; pest or weed control at 1000 g/ha (Lolium perenne (LOLPE) [8]; [19]): 70%; pest or weed control at 1000 g/ha (Setaria faberi (SETFA) [9]): 70%
CCOP(=O)(CCC[n+]1ccc(-c2ncccn2)cn1)OCC.O=C([O-])C(F)(F)F [Compound A204]	–	–	–	–	–	–	–	–	–	10	20	0	0	0	0	0	0	0	–
O=P([O-])(O)C[n+]1ccc(-c2ccncn2)cn1 [Compound A236]	–	–	–	–	–	–	–	–	–	90	20	80	50	10	30	40	0	30	–
N[C@H](CC[n+]1ccc(-c2ccncn2)cn1)C(=O)O [Compound A235]	–	–	–	–	–	–	–	–	–	10	40	40	30	10	20	20	0	30	–
O=C(O)c1ccnc(-c2cc[n+](CCCS(=O)(=O)[O-])nc2)n1 [Compound A146]	90	40	80	90	80	50	30	50	100	–	–	–	–	–	–	–	–	–	–
CCOP(=O)(CC[n+]1ccc(-c2ncccn2)cn1)OCC.O=C([O-])C(F)(F)F [Compound A124, 1-(2-diethoxyphosphorylethyl)-4-pyrimidin-2-yl-pyridazin-1-ium]	0	0	10	0	0	0	0	0	20	–	–	–	–	–	–	–	–	–	–
NC(=O)c1cnc(-c2cc[n+](CCC(=O)O)nc2)cn1 [Compound A202, 3-[4-(5-carbamoylpyrazin-2-yl)pyridazin-1-ium-1-yl]propanoic acid 2,2,2-trifluoroacetate]	–	–	–	–	–	–	–	–	–	100	90	60	80	20	100	60	70	70	–
